The record followed here is PubChem BioAssay AID248 (DTP/NCI, 2004).

Each structure is given as a SMILES string. Where “and” joins values, the source holds several entries; their conditions need not be identical. Identical values can stand only once. Toxic doses and inconclusive results are not listed.

The subject of this test is L1210 leukemia ip in BDF1 mice, survival T/C. Kind of test: NCI In Vivo Anticancer Drug Screen. Data for tumor model L1210 Leukemia (intraperitoneal) in B6D2F1 (BDF1) mice. The settings on record: higher = longer survival. Summed up: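 Survival endpoint. Drug-treated group vs vehicle group, expressed as T divided by C. Tumor passaged by transplantation.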
The mark [1] stands for this setting: endpoint: mean survival time, dose: 100.0 mg/kg/injection, schedule: Q04DX003 (ip), vehicle: saline with Tween-80.
The mark [2] stands for this setting: endpoint: mean survival time, dose: 200.0 mg/kg/injection, schedule: Q04DX003 (ip), vehicle: saline with Tween-80.

As for `CC1CCC(C(C)C)C(NCCO)C1` (stereo unspecified), the T/C was 102 % of control (endpoint: mean survival time, dose: 18.8 mg/kg/injection, schedule: Q04DX003 (ip), vehicle: saline); 100 % of control (endpoint: mean survival time, dose: 37.5 mg/kg/injection, schedule: Q04DX003 (ip), vehicle: saline); 103 % of control (endpoint: mean survival time, dose: 75.0 mg/kg/injection, schedule: Q01DX001 (ip), vehicle: saline); 100 % of control (endpoint: mean survival time, dose: 75.0 mg/kg/injection, schedule: Q04DX003 (ip), vehicle: saline).
On to `S=P(N1CCOCC1)(N1CC1)N1CC1`, for which the T/C was 106 % of control (endpoint: mean survival time, dose: 2.4 mg/kg/injection, schedule: Q01DX001 (ip), vehicle: saline); 104 % of control (endpoint: mean survival time, dose: 2.4 mg/kg/injection, schedule: Q07DX003 (ip), vehicle: saline); 109 % of control (endpoint: mean survival time, dose: 2.5 mg/kg/injection, schedule: Q01DX Z (ip), vehicle: carboxymethylcellulose (CMC)); 102 % of control (endpoint: mean survival time, dose: 2.5 mg/kg/injection, schedule: Q#A X Z (ip), vehicle: saline); 117 % of control (endpoint: mean survival time, dose: 4.3 mg/kg/injection, schedule: Q01DX001 (ip), vehicle: saline); 113 % of control (endpoint: mean survival time, dose: 4.3 mg/kg/injection, schedule: Q07DX003 (ip), vehicle: saline). Moreover, the T/C was 107 % of control (endpoint: mean survival time, dose: 5.0 mg/kg/injection, schedule: Q01DX006 (iv), vehicle: saline); 101 % of control and 104 % of control (endpoint: mean survival time, dose: 5.0 mg/kg/injection, schedule: Q01DX009 (ip), vehicle: saline); 97 % of control and 103 % of control (endpoint: mean survival time, dose: 5.0 mg/kg/injection, schedule: Q01DX010 (ip), vehicle: saline); 104 % of control (endpoint: mean survival time, dose: 5.0 mg/kg/injection, schedule: Q01DX Z (im), vehicle: saline); 102 % of control (endpoint: mean survival time, dose: 5.0 mg/kg/injection, schedule: Q01DX Z (ip), vehicle: carboxymethylcellulose (CMC)); 110 % of control (endpoint: mean survival time, dose: 5.0 mg/kg/injection, schedule: Q01DX Z (ip), vehicle: saline). Besides, the T/C is, setting by setting: (endpoint: mean survival time, dose: 5.0 mg/kg/injection, schedule: Q01DX Z (sc), vehicle: saline) 107 % of control; (endpoint: mean survival time, dose: 5.0 mg/kg/injection, schedule: Q#A X Z (ip), vehicle: saline) 106 % of control; (endpoint: mean survival time, dose: 8.7 mg/kg/injection, schedule: Q01DX001 (ip), vehicle: saline) 103 % of control; (endpoint: mean survival time, dose: 8.7 mg/kg/injection, schedule: Q07DX003 (ip), vehicle: saline) 115 % of control; (endpoint: mean survival time, dose: 10.0 mg/kg/injection, schedule: Q01DX006 (iv), vehicle: saline) 109 % of control; (endpoint: mean survival time, dose: 10.0 mg/kg/injection, schedule: Q01DX009 (ip), vehicle: saline) 101 % of control and 104 % of control. The T/C was 114 % of control and 124 % of control (endpoint: mean survival time, dose: 10.0 mg/kg/injection, schedule: Q01DX010 (ip), vehicle: saline); 114 % of control (endpoint: mean survival time, dose: 10.0 mg/kg/injection, schedule: Q01DX Z (im), vehicle: saline); 115 % of control (endpoint: mean survival time, dose: 10.0 mg/kg/injection, schedule: Q01DX Z (ip), vehicle: carboxymethylcellulose (CMC)); 116 % of control (endpoint: mean survival time, dose: 10.0 mg/kg/injection, schedule: Q01DX Z (ip), vehicle: saline); 107 % of control (endpoint: mean survival time, dose: 10.0 mg/kg/injection, schedule: Q01DX Z (sc), vehicle: saline); 118 % of control (endpoint: mean survival time, dose: 15.0 mg/kg/injection, schedule: Q03DX006 (ip), vehicle: saline). Further, the T/C is 106 % of control (endpoint: mean survival time, dose: 17.5 mg/kg/injection, schedule: Q01DX001 (ip), vehicle: saline); 118 % of control (endpoint: mean survival time, dose: 18.0 mg/kg/injection, schedule: Q01DX003 (ip), vehicle: saline); 108 % of control and 120 % of control (endpoint: mean survival time, dose: 20.0 mg/kg/injection, schedule: Q01DX009 (ip), vehicle: saline); 118 % of control and 119 % of control (endpoint: mean survival time, dose: 20.0 mg/kg/injection, schedule: Q01DX010 (ip), vehicle: saline); 168 % of control (endpoint: mean survival time, dose: 20.0 mg/kg/injection, schedule: Q01DX Z (im), vehicle: saline); 123 % of control (endpoint: mean survival time, dose: 20.0 mg/kg/injection, schedule: Q01DX Z (ip), vehicle: carboxymethylcellulose (CMC)). Besides, the T/C (endpoint: mean survival time, dose: 20.0 mg/kg/injection, schedule: Q01DX Z (ip), vehicle: saline) was 160 % of control; the T/C (endpoint: mean survival time, dose: 20.0 mg/kg/injection, schedule: Q01DX Z (oral), vehicle: saline) was 122 % of control; the T/C (endpoint: mean survival time, dose: 26.0 mg/kg/injection, schedule: Q01DX003 (ip), vehicle: saline) was 166 % of control; the T/C (endpoint: mean survival time, dose: 30.0 mg/kg/injection, schedule: Q03DX006 (ip), vehicle: saline) is 160 % of control; the T/C (endpoint: mean survival time, dose: 35.0 mg/kg/injection, schedule: Q01DX001 (ip), vehicle: saline) was 120 % of control; the T/C (endpoint: mean survival time, dose: 40.0 mg/kg/injection, schedule: Q01DX003 (ip), vehicle: saline) was 150 % of control and 173 % of control. The T/C reads like this: (endpoint: mean survival time, dose: 40.0 mg/kg/injection, schedule: Q01DX009 (ip), vehicle: saline) 101 % of control and 104 % of control; (endpoint: mean survival time, dose: 40.0 mg/kg/injection, schedule: Q01DX010 (ip), vehicle: saline) 104 % of control; (endpoint: mean survival time, dose: 40.0 mg/kg/injection, schedule: Q01DX Z (im), vehicle: saline) 110 % of control; (endpoint: mean survival time, dose: 40.0 mg/kg/injection, schedule: Q01DX Z (ip), vehicle: saline) 89 % of control; (endpoint: mean survival time, dose: 40.0 mg/kg/injection, schedule: Q#A X Z (ip), vehicle: saline) 92 % of control; (endpoint: mean survival time, dose: 60.0 mg/kg/injection, schedule: Q01DX003 (ip), vehicle: saline) 156 % of control and 178 % of control. The T/C (endpoint: mean survival time, dose: 70.0 mg/kg/injection, schedule: Q07DX003 (ip), vehicle: saline) was 178 % of control; the T/C (endpoint: mean survival time, dose: 80.0 mg/kg/injection, schedule: Q01DX006 (iv), vehicle: saline) was 164 % of control; the T/C (endpoint: mean survival time, dose: 80.0 mg/kg/injection, schedule: Q01DX Z (oral), vehicle: saline) was 100 % of control; the T/C (endpoint: mean survival time, dose: 140.0 mg/kg/injection, schedule: Q01DX001 (ip), vehicle: saline) is 107 % of control; the T/C (endpoint: mean survival time, dose: 280.0 mg/kg/injection, schedule: Q01DX001 (ip), vehicle: saline) is 102 % of control; the T/C (endpoint: median survival time, dose: 5.0 mg/kg/injection, schedule: Q01DX009 (ip), vehicle: saline) was 100 % of control and 111 % of control. The T/C by setting is: (endpoint: median survival time, dose: 10.0 mg/kg/injection, schedule: Q01DX009 (ip), vehicle: saline) 106 % of control and 122 % of control; (endpoint: median survival time, dose: 20.0 mg/kg/injection, schedule: Q01DX009 (ip), vehicle: saline) 166 % of control and 168 % of control; (endpoint: median survival time, dose: 40.0 mg/kg/injection, schedule: Q01DX009 (ip), vehicle: saline) 122 % of control.
For `O=C(CI)Nc1ccc(Cl)c(Cl)c1`, the T/C reads like this: (endpoint: mean survival time, dose: 25.0 mg/kg/injection, schedule: Q01DX009 (ip), vehicle: Klucel (hydroxypropylcellulose) (HPC)) 95 % of control; (endpoint: mean survival time, dose: 50.0 mg/kg/injection, schedule: Q01DX009 (ip), vehicle: Klucel (hydroxypropylcellulose) (HPC)) 94 % of control; (endpoint: mean survival time, dose: 100.0 mg/kg/injection, schedule: Q01DX009 (ip), vehicle: Klucel (hydroxypropylcellulose) (HPC)) 93 % of control.
Consider `CN(C)c1ccc2nc(C(=O)O)c(=O)n(C)c2c1`, for which the T/C (endpoint: mean survival time, dose: 100.0 mg/kg/injection, schedule: Q01DX001 (ip), vehicle: Klucel (hydroxypropylcellulose) (HPC)) is 101 % of control and the T/C (endpoint: mean survival time, dose: 200.0 mg/kg/injection, schedule: Q01DX001 (ip), vehicle: Klucel (hydroxypropylcellulose) (HPC)) is 97 % of control.
Take `CC(=O)OCC(Br)C(Br)COC(C)=O` (stereo unspecified): the T/C was 98 % of control (endpoint: mean survival time, dose: 100.0 mg/kg/injection, schedule: Q01DX009 (ip), vehicle: saline); 95 % of control (endpoint: mean survival time, dose: 200.0 mg/kg/injection, schedule: Q01DX009 (ip), vehicle: saline); 103 % of control (endpoint: mean survival time, dose: 400.0 mg/kg/injection, schedule: Q01DX009 (ip), vehicle: saline).
Consider `C=CC[N+]1=C(C)C(C)(C)c2ccccc21`, for which the T/C by setting is: under setting [1], 95 % of control; under setting [2], 96 % of control.
In the case of `c1ccc(C(N2CCN(c3ccccc3)CC2)N2CCN(c3ccccc3)CC2)cc1`, the T/C was 94 % of control (endpoint: mean survival time, dose: 100.0 mg/kg/injection, schedule: Q04DX002 (ip), vehicle: Klucel (hydroxypropylcellulose) (HPC)); 94 % of control (endpoint: mean survival time, dose: 200.0 mg/kg/injection, schedule: Q04DX002 (ip), vehicle: Klucel (hydroxypropylcellulose) (HPC)); 94 % of control (endpoint: mean survival time, dose: 400.0 mg/kg/injection, schedule: Q04DX002 (ip), vehicle: Klucel (hydroxypropylcellulose) (HPC)).
Take `O=Cc1cc([N+](=O)[O-])ccc1OCC(=O)O`: the T/C under setting [1] is 103 % of control; the T/C under setting [2] was 92 % of control; the T/C (endpoint: mean survival time, dose: 400.0 mg/kg/injection, schedule: Q04DX003 (ip), vehicle: saline with Tween-80) was 93 % of control.
